18 molecules from ChEMBL document CHEMBL1145362, “Structure-activity relationships of SERMs optimized for uterine antagonism and ovarian safety” (Bioorg Med Chem Lett, 2007) can be followed below.

The nature of series [1]: Drug level in Sprague-Dawley rat plasma at 10 mg/kg, po after 6 hrs. The class given is ADME, organism-based. Further details: dose 10 mg/kg, route oral. As to conditions: read-out: Drug uptake.
Series [2] can be described thus: Ratio of log of drug level in brain to blood in Sprague-Dawley rat. Type of series: ADME, tissue-based. As to conditions: read-out: logBB (converted).
A short description of series [3]: Drug level in Sprague-Dawley rat brain at 10 mg/kg, po after 6 hrs. Type of series: ADME, organism-based. More on the design: dose 10 mg/kg, route oral. To be noted: read-out: Drug uptake.
The subject of series [4] is Ishikawa. As to the kind of experiment: Inhibition of estrogen stimulation in human Ishikawa cells by alkaline phosphatase quantitation. To be noted: for IC50: Homo sapiens, Ishikawa. The class given is functional, cell-based.
The subject of series [5] is Rattus norvegicus. Briefly: Inhibition of estrogen stimulation in Sprague-Dawley rat at 10 mg/kg. Type of series: functional.
The target in series [6] is T1, Estrogen receptor (Homo sapiens, UniProt P03372).
T1 sequence (P03372 whole entry): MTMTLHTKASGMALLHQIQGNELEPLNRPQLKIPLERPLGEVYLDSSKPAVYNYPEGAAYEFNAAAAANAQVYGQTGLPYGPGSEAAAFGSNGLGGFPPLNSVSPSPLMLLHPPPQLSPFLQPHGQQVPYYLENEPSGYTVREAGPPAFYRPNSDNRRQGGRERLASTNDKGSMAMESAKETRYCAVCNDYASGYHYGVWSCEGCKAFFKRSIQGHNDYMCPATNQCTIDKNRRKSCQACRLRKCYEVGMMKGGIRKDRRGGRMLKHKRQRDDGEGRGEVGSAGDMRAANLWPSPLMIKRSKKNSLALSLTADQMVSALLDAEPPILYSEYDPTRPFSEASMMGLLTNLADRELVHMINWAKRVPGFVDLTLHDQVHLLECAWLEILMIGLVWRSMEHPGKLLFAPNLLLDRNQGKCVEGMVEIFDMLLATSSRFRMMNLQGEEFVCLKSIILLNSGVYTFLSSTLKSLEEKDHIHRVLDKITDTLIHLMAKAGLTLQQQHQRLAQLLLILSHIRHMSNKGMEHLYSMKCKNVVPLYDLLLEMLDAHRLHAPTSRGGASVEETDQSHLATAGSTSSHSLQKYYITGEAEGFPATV
Description: Displacement of [3H]estradiol from human recombinant ERalpha

Series [7] addresses Estrogen receptor beta (Homo sapiens, UniProt Q92731). As to the kind of experiment: Displacement of [3H]estradiol from human recombinant ERbeta.
Series [8] has as its system Ishikawa. As to the kind of experiment: Increase in estrogen stimulation in human Ishikawa cells by alkaline phosphatase quantitation at 1 uM relative to control. The class given is functional.
Series [9] concerns Rattus norvegicus. As to the kind of experiment: Inhibition of estradiol-induced increase in uterine wet weight in orally dosed Sprague-Dawley rat after 3 days. The class given is functional. To be noted: po, 72 h.
Series [10] deals with Rattus norvegicus. Briefly: Increase in uterine wet weight in Sprague-Dawley rat at 0.1 mg/kg. Type of series: functional.

Bounds are passed on as bounds.

Chain of Estrogen receptor beta (Q92731 whole entry): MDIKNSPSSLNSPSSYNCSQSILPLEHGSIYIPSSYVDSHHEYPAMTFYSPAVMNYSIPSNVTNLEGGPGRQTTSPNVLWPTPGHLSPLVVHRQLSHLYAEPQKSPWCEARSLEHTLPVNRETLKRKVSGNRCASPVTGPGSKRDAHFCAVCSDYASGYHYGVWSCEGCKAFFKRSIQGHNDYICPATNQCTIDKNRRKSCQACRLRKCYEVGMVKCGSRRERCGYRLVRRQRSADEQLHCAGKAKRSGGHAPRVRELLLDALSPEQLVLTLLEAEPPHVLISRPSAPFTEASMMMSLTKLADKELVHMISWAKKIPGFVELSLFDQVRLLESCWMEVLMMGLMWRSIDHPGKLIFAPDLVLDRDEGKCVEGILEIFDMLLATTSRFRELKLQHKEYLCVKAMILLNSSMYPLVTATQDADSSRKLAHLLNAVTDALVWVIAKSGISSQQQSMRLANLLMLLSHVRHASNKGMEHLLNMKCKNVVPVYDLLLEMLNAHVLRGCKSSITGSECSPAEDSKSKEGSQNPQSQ

Consider `CS(=O)(=O)c1ccc(-c2ccc3cc(O)ccc3c2Oc2ccc(OCCN3CCCCC3)cc2)cc1`, for which the concentration at 6 h worked out at 660 ng/mL in series [1] and 103 ng/g in series [3]. Besides, in series [2], the Kp is 0.155.
Regarding `Oc1ccc2c(Oc3ccc(OCCN4CCCCC4)cc3)c(-c3ccc(F)cc3)ccc2c1`, the Efficacy worked out at 93% in [4] and 21% in series [8]. For the same molecule, in series [4], the IC50 was 3.2 nM. Also, the concentration at 6 h was determined as 151 ng/mL in series [1] and 2690 ng/g in series [3]. Also, the ED50 in series [5] was less than 1 mg/kg; in series [9], 0.015 mg/kg. This molecule showed an inhibition in vivo at 10 mg/kg in series [5] of 83%. Further, the Kp in [2] was 17.8. Further, the values for the Ki in [6] and in [7] were 0.24 nM and 0.28 nM, respectively.
As to `CN(C)C(=O)c1ccc(-c2ccc3cc(O)ccc3c2Oc2ccc(OCCN3CCCCC3)cc2)cc1`, the values for the Efficacy in [4] and in [8] were 95% and 25%, respectively. Also, inhibition in series [4] was half-maximal at 6.7 nM (IC50). For the same molecule, the ED50 in series [5] was less than 1 mg/kg; in series [9], 0.19 mg/kg. The molecule also showed an inhibition in vivo at 10 mg/kg in series [5] of 83%. Further, the Ki in series [6] came to 0.57 nM; in [7], 1.16 nM.
Consider `Oc1cccc(-c2ccc3cc(O)ccc3c2Oc2ccc(OCCN3CCCCC3)cc2)c1`, for which the Efficacy in [4] was determined as 100%; in series [8], 26%. Further, in series [4], the IC50 was 2.1 nM. Besides, the figures for the concentration at 6 h in series [1] and in series [3] were 211 ng/mL and 57 ng/g, respectively. Moreover, the ED50 in [5] was less than 1 mg/kg; in series [9] it was 0.13 mg/kg. The molecule also returned an inhibition in vivo at 10 mg/kg in series [5] of 83%. Besides, the Kp in [2] was 0.269. Also, the Ki was found to be 0.21 nM in [6] and 0.36 nM in [7].
For `CC(C)S(=O)(=O)c1ccc(-c2ccc3cc(O)ccc3c2Oc2ccc(OCCN3CCCCC3)cc2)cc1`, the Efficacy in series [4] is on record as 96%; in [8], 11%. In [4], this molecule showed an IC50 of 4.9 nM. Moreover, the ED50 is less than 1 mg/kg in series [5] and 0.37 mg/kg in series [9]. This molecule also gave an inhibition in vivo at 10 mg/kg in [5] of 83%. Further, the Ki in series [6] stood at 0.73 nM; in [7], 2.17 nM.
Consider `O=S1(=O)CCC(c2ccc3cc(O)ccc3c2Oc2ccc(OCCN3CCCCC3)cc2)CC1`, for which the results for the Efficacy in series [4] and in [8] were 93% and 27%, respectively. This molecule also yielded an IC50 in [4] of 15.7 nM. In addition, the ED50 in [5] was less than 1 mg/kg; in [9], 0.34 mg/kg. The inhibition in vivo at 10 mg/kg in [5] is 83%. Besides, the Ki in series [6] came out at 1.89 nM; in series [7] it was 4.11 nM.
With `N#Cc1cccc(-c2ccc3cc(O)ccc3c2Oc2ccc(OCCN3CCCCC3)cc2)c1`, the Efficacy in [4] is on record as 94%; in series [8], 23%. Moreover, the IC50 in series [4] worked out at 18.5 nM. For the same molecule, the figures for the concentration at 6 h in [1] and in [3] were 360 ng/mL and 529 ng/g, respectively. In addition, the ED50 is less than 1 mg/kg in series [5] and 0.37 mg/kg in series [9]. Also, the inhibition in vivo at 10 mg/kg in series [5] came to 83%. In addition, the Ki in [6] was 0.24 nM; in [7], 0.35 nM.
For the molecule `CCS(=O)(=O)c1ccc(-c2ccc3cc(O)ccc3c2Oc2ccc(OCCN3CCCCC3)cc2)cc1`, the Efficacy in series [4] turned out to be 95%; in series [8], 19%. In series [4], this molecule had an IC50 of 6.1 nM. For the same molecule, the concentration at 6 h in series [1] was determined as 357 ng/mL; in series [3], 43 ng/g. The ED50 in [5] was less than 1 mg/kg; in series [9], 0.14 mg/kg. Besides, 10 mg/kg produced 83% inhibition in vivo in [5]. Further, in series [2], the Kp was 0.12. The values for the Ki in series [6] and in [7] were 1.22 nM and 4.19 nM, respectively.
In the case of `Oc1ccc2c(Oc3ccc(OCCN4CCCCC4)cc3)c(-c3ccc(F)c(F)c3)ccc2c1`, the Efficacy in [4] was 96%; in [8] it was 13%. Besides, the IC50 in [4] is 3.9 nM. Moreover, the concentration at 6 h in series [1] is 418 ng/mL; in series [3], 3490 ng/g. Besides, the ED50 in series [5] was less than 1 mg/kg; in series [9], 0.058 mg/kg. Moreover, in [5], at 10 mg/kg the inhibition in vivo was 83%. Also, the Kp in series [2] was 8.32. For the same molecule, the results for the Ki in [6] and in series [7] were 0.2 nM and 0.29 nM, respectively.
For the molecule `C#CC1(O)CC[C@H]2[C@@H]3CCc4cc(O)ccc4[C@H]3CC[C@@]21C` (single isomer, unassigned) [ETHINYL ESTRADIOL], in series [10], the Fold change is 3.
As for `CS(=O)(=O)c1ccc(-c2sc3cc(O)ccc3c2Oc2ccc(OCCN3CCCCC3)cc2)cc1`, the Efficacy in series [4] was 97%; in series [8], 24%. Besides, it took 22.2 nM to reach half-maximal inhibition in [4] (IC50). Also, the ED50 in [5] is less than 1 mg/kg; in series [9], 0.62 mg/kg. Further, the inhibition in vivo at 10 mg/kg in series [5] amounted to 83%. Further, the inhibition constant Ki was 0.63 nM in series [6] and 13.6 nM in series [7].
For `Oc1ccc(-c2ccc3cc(O)ccc3c2Oc2ccc(OCCN3CCCCC3)cc2)cc1`, the results for the Efficacy in series [4] and in [8] were 96% and 13%, respectively. The same molecule registered an IC50 in series [4] of 4.7 nM. The concentration at 6 h in [1] turned out to be 277 ng/mL; in series [3], 47 ng/g. Also, the ED50 in series [5] is less than 1 mg/kg; in series [9] it was 0.3 mg/kg. In addition, 10 mg/kg produced 83% inhibition in vivo in series [5]. Moreover, the Kp in series [2] is 0.17. Moreover, the Ki in series [6] came out at 0.32 nM; in series [7], 0.48 nM.
For `O=S1(=O)CC=C(c2ccc3cc(O)ccc3c2Oc2ccc(OCCN3CCCCC3)cc2)CC1`, the Efficacy in series [4] is reported as 98%; in series [8] it was 19%. In series [4], this molecule showed an IC50 of 7.2 nM. The results for the ED50 in series [5] and in series [9] were less than 1 mg/kg and 0.25 mg/kg, respectively. Also, the inhibition in vivo at 10 mg/kg in series [5] stood at 83%. The results for the Ki in [6] and in [7] were 1.03 nM and 2.1 nM, respectively.
`CS(=O)(=O)C1CC=C(c2ccc3cc(O)ccc3c2Oc2ccc(OCCN3CCCCC3)cc2)CC1` (centres undefined): the Efficacy in series [4] amounted to 99%; in [8], 24%. The same molecule gave an IC50 in [4] of 8 nM. In addition, the ED50 in [5] is less than 1 mg/kg; in [9], 0.26 mg/kg. This molecule showed an inhibition in vivo at 10 mg/kg in series [5] of 83%. In addition, the Ki in series [6] turned out to be 1.09 nM; in series [7], 2.69 nM.
`CC(C)c1ccc(-c2sc3cc(O)ccc3c2Oc2ccc(OCCN3CCCCC3)cc2)cc1`: the Efficacy stood at 95% in series [4] and 29% in series [8]. Further, the IC50 in series [4] worked out at 16.2 nM. The ED50 in series [5] is less than 1 mg/kg; in series [9], 0.16 mg/kg. This molecule also returned an inhibition in vivo at 10 mg/kg in series [5] of 83%. The Ki was 0.091 nM in series [6] and 0.63 nM in [7].
Regarding `Oc1ccc2c(Oc3ccc(OCCN4CCCCC4)cc3)c(-c3cccc(F)c3)ccc2c1`, the Efficacy in [4] was found to be 97%; in series [8], 15%. In series [4], this molecule came in with an IC50 of 4.8 nM. Moreover, the concentration at 6 h in series [1] amounted to 137 ng/mL; in series [3], 730 ng/g. The ED50 in series [5] is less than 1 mg/kg; in [9] it was 0.23 mg/kg. Besides, the inhibition in vivo at 10 mg/kg in series [5] was 83%. Moreover, the Kp in series [2] was 5.37. In addition, the results for the Ki in series [6] and in series [7] were 0.18 nM and 0.16 nM, respectively.
With `CCS(=O)(=O)c1ccc(-c2sc3cc(O)ccc3c2Oc2ccc(OCCN3CCCCC3)cc2)cc1`, in series [4], the Efficacy is 95% and half-maximal inhibition (IC50) was put at 14.5 nM. Besides, in [5], the ED50 is less than 1 mg/kg and the inhibition in vivo at 10 mg/kg is 83%. In series [7], the Ki stood at 15.7 nM. For the same molecule, the Efficacy in series [8] amounted to 16%. The molecule further displayed an ED50 in [9] of 0.56 mg/kg.
As to `CN(C)S(=O)(=O)c1ccc(-c2ccc3cc(O)ccc3c2Oc2ccc(OCCN3CCCCC3)cc2)cc1`, the Efficacy in series [4] is 99%; in series [8], 27%. The same molecule yielded an IC50 in [4] of 2.8 nM. Further, the concentration at 6 h came to 108 ng/mL in series [1] and 46 ng/g in series [3]. Moreover, the ED50 in series [5] was less than 1 mg/kg; in series [9], 0.44 mg/kg. For the same molecule, at 10 mg/kg the inhibition in vivo in series [5] was 83%. Besides, the Kp in series [2] was 0.427. Moreover, the Ki worked out at 0.4 nM in series [6] and 1.69 nM in [7].
